In the supplement of paper PMC11208160:

test: recombinant UMI read abundance after kanamycin selection (control-corrected) (log10(CPM+1)); higher = more efficient recombination; extreme values may be limits of the assay; sequences stand for … in AGTGCAGAGAAAATCGGCCAGTTTTCTCTGCCTGCAGTCCGCATGCCGTGGGACCCCTTGGGTTCTAACCTGTTGCCTAGATTTATGCAGCGGACTGCCTTTCTCCCAAAGTGATAAACCGG…AGGTTGGTTTCACT; site = the 11-nt donor
Procedure, shortened: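 Values are reported as log10(CPM+1), obtained by converting sequencing counts to CPM, averaging replicates and scaling by control-derived factors. The counts came from recombinant UMIs amplified by PCR across the donor–target junction. These UMIs came from a pooled Escherichia coli screen of donor and donor-binding-loop pairs for the IS621 bridge recombinase, plated with IPTG (0.07 mM) plus kanamycin or left unselected, in two replicates each.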
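Further: IS621 bridge recombinase in Escherichia coli cells against a fixed T5 target plasmid.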

| Sequence | recombinant UMI read abundance (log10) |
| --- | --- |
| CCAATATCATGGACCGGTTTTCCCGGTAATCCGTATTTGTC (site CCCATATCTGA) | 0.0129 |
| CACCTGGCATGGACCGGTTTTCCCGGTAATCCGTATTTGGA (site CACTTGGCTTC) | 0.0384 |
| CATTTGGCATGGACCGGTTTTCCCGGTAATCCGTATTTGTG (site AATTTGGCTCA) | 0.0432 |
| AGGAATACATGGACCGGTTTTCCCGGTAATCCGTATTTGGG (site AGGAATACTCC) | 0.394 |
| TGCTCGGCATGGACCGGTTTTCCCGGTAATCCGTATTTGGT (site TGCTAGGCTAC) | 0.00732 |
| GATTATTCATGGACCGGTTTTCCCGGTAATCCGTATTTGCT (site GATTATGCTAG) | 0 |
| ATGTTCACATGGACCGGTTTTCCCGGTAATCCGTATTTGGT (site ATGTTCACTAC) | 1.66 |
| GCGTGGTCATGGACCGGTTTTCCCGGTAATCCGTATTTGGC (site GCGTGGTCTGC) | 2.06 |
| TGCTAGACATGGACCGGTTTTCCCGGTAATCCGTATTTGGT (site TGCTAGGCTAC) | 0.0111 |
| TCATACTCATGGACCGGTTTTCCCGGTAATCCGTATTTGCA (site TCATGCTCTTG) | 0 |
| ACAGAATCATGGACCGGTTTTCCCGGTAATCCGTATTTGCA (site ACAGAATCTTG) | 2.9 |
| TTAGCCGCATGGACCGGTTTTCCCGGTAATCCGTATTTGTG (site TTAGCCGCTCA) | 0.564 |
| CGATTATCATGGACCGGTTTTCCCGGTAATCCGTATTTGAC (site CTAGTATCTGT) | 1.07 |
| ACCAGTGCATGGACCGGTTTTCCCGGTAATCCGTATTTGGT (site ACTAGTGCTAC) | 0.19 |
| ATGTAGGCATGGACCGGTTTTCCCGGTAATCCGTATTTGGC (site ATTTAGGCTGC) | 0.516 |
| GATTTGGCATGGACCGGTTTTCCCGGTAATCCGTATTTGTG (site TATTTGGCTCA) | 0.0288 |
| ACTTGCCCATGGACCGGTTTTCCCGGTAATCCGTATTTGAT (site ACTTGCCCTAT) | 0.398 |
| ACTAGGACATGGACCGGTTTTCCCGGTAATCCGTATTTGAG (site ACTAGAACTCT) | 2.04 |
| ACGAAGACATGGACCGGTTTTCCCGGTAATCCGTATTTGCA (site ATGAAGACTTG) | 2.04 |
| GAAGGGCCATGGACCGGTTTTCCCGGTAATCCGTATTTGCA (site GAATGGCCTTG) | 0 |
| TGGCCGGCATGGACCGGTTTTCCCGGTAATCCGTATTTGGC (site TGGCCGGCTGG) | 0 |
| TATGAATCATGGACCGGTTTTCCCGGTAATCCGTATTTGCG (site TACGAATCTCG) | 2.23 |
| GATTGGCCATGGACCGGTTTTCCCGGTAATCCGTATTTGCA (site GATTGGCCTTG) | 0.00508 |
| ACAGTATCATGGACCGGTTTTCCCGGTAATCCGTATTTGAA (site ACAGTATCTTT) | 3.04 |
| ATGTAGGCATGGACCGGTTTTCCCGGTAATCCGTATTTGGC (site ATGTAGGCTTC) | 1.15 |

| Sequence | recombinant UMI read abundance (log10) |
| --- | --- |
| GGGAATCCATGGACCGGTTTTCCCGGTAATCCGTATTTGAT (site GGGAATCCTAT) | 0.145 |
| GGGAAGACATGGACCGGTTTTCCCGGTAATCCGTATTTGGA (site GGGAAGACTTC) | 1.22 |
| GGCGCGACATGGACCGGTTTTCCCGGTAATCCGTATTTGCC (site GGCGCGACTGG) | 1.35 |
| TGTACACCATGGACCGGTTTTCCCGGTAATCCGTATTTGAC (site TGTCCACCTGT) | 0 |
| TTAGATGCATGGACCGGTTTTCCCGGTAATCCGTATTTGTG (site TTAGATGCTCA) | 1.52 |
| CCCTTCTCATGGACCGGTTTTCCCGGTAATCCGTATTTGGT (site CCCTTCTCTAC) | 1.32 |
| CGATCAACATGGACCGGTTTTCCCGGTAATCCGTATTTGCG (site CGATCATCTAG) | 0 |
| TAGGGACCATGGACCGGTTTTCCCGGTAATCCGTATTTGGT (site TAGGGACCTAC) | 0.00346 |
| TCAGAGACATGGACCGGTTTTCCCGGTAATCCGTATTTGCA (site TCAGAGACTAG) | 0.204 |
| CTGGTACCATGGACCGGTTTTCCCGGTAATCCGTATTTGCT (site CTGATACCTAG) | 0 |
| AACGACCCATGGACCGGTTTTCCCGGTAATCCGTATTTGAG (site AACGACCCTCT) | 0.029 |
| AATTATGCATGGACCGGTTTTCCCGGTAATCCGTATTTGGG (site AATTATGCTTC) | 0.0224 |
| TATTCGGCATGGACCGGTTTTCCCGGTAATCCGTATTTGTG (site TATTAGGCTCA) | 0.0202 |
| TTGACTACATGGACCGGTTTTCCCGGTAATCCGTATTTGCT (site TTGACTACTAG) | 1.09 |
| TTTGCGGCATGGACCGGTTTTCCCGGTAATCCGTATTTGGT (site TTTGCGGCTAT) | 0.144 |
| CTAGTATCATGGACCGGTTTTCCCGGTAATCCGTATTTGAA (site CTAGTATCTTT) | 2.92 |
| AGGAAGCCATGGACCGGTTTTCCCGGTAATCCGTATTTGCC (site AGGAAGCCTGG) | 0 |
| ATGTAGGCATGGACCGGTTTTCCCGGTAATCCGTATTTGTC (site ATGTAGGCTGG) | 2.52 |
| CAGCCGACATGGACCGGTTTTCCCGGTAATCCGTATTTGGG (site CAGACGACTCC) | 0.0262 |
| CAGTCGACATGGACCGGTTTTCCCGGTAATCCGTATTTGAG (site CAGTCGACTCG) | 0.00367 |
| CCTATAGCATGGACCGGTTTTCCCGGTAATCCGTATTTGAT (site CCTATAGCTAT) | 0.00747 |
| GGCATTCCATGGACCGGTTTTCCCGGTAATCCGTATTTGAA (site GGCATTCCTTT) | 0.29 |
| CTACTCTCATGGACCGGTTTTCCCGGTAATCCGTATTTGTA (site CTGCTCTCTTA) | 1.32 |
| TAAAGTTCATGGACCGGTTTTCCCGGTAATCCGTATTTGTA (site TAAAGTGCTTA) | 0.00586 |
| TTATCTGCATGGACCGGTTTTCCCGGTAATCCGTATTTGTG (site TTATCTGCTCA) | 1.73 |

| Sequence | recombinant UMI read abundance (log10) |
| --- | --- |
| TGTACACCATGGACCGGTTTTCCCGGTAATCCGTATTTGAC (site TGTATACCTGT) | 0 |
| TCATCTACATGGACCGGTTTTCCCGGTAATCCGTATTTGTG (site TCATCTACTCA) | 0.00873 |
| AAGCACGCATGGACCGGTTTTCCCGGTAATCCGTATTTGGG (site GAGCACGCTCC) | 0.0379 |
| CGCACATCATGGACCGGTTTTCCCGGTAATCCGTATTTGCT (site CGCACATCTAG) | 1.02 |
| TGGCCGGCATGGACCGGTTTTCCCGGTAATCCGTATTTGGC (site TGGCCGGCTAC) | 0.0414 |
| AAGCACGCATGGACCGGTTTTCCCGGTAATCCGTATTTGGG (site CAGCACGCTCC) | 0.00873 |
| ATCCTGGCATGGACCGGTTTTCCCGGTAATCCGTATTTGAA (site ATCCTGGCTTT) | 1.24 |
| ACACATCCATGGACCGGTTTTCCCGGTAATCCGTATTTGAC (site ACACATCCTGG) | 0 |
| TAGCGAGCATGGACCGGTTTTCCCGGTAATCCGTATTTGTC (site TAGCGAGCTGA) | 2.41 |
| TAAGATTCATGGACCGGTTTTCCCGGTAATCCGTATTTGTT (site TAAGATTCTAA) | 2.02 |
| TCCCACACATGGACCGGTTTTCCCGGTAATCCGTATTTGTA (site CCCCACACTTA) | 0.0988 |
| ATTCTCTCATGGACCGGTTTTCCCGGTAATCCGTATTTGTA (site CTTCTCTCTTA) | 2.42 |
| CCCATCTCATGGACCGGTTTTCCCGGTAATCCGTATTTGTC (site CCCATCTCTGA) | 1.35 |
| TAGGAATCATGGACCGGTTTTCCCGGTAATCCGTATTTGCG (site TAGGCATCTCG) | 1.14 |
| GTTAGAACATGGACCGGTTTTCCCGGTAATCCGTATTTGAC (site GTTAGAACTGC) | 0.0153 |
| GGTGCACCATGGACCGGTTTTCCCGGTAATCCGTATTTGCA (site GGCGCACCTTG) | 0.0224 |
| CGGAAGCCATGGACCGGTTTTCCCGGTAATCCGTATTTGCA (site AGGAAGACTTG) | 0 |
| ACTAGAACATGGACCGGTTTTCCCGGTAATCCGTATTTGAG (site ACTAGATCTCT) | 1.72 |
| AGAAAGGCATGGACCGGTTTTCCCGGTAATCCGTATTTGCT (site AGACAGGCTAG) | 0 |
| TGGGAACCATGGACCGGTTTTCCCGGTAATCCGTATTTGAT (site AGGGAACCTAT) | 0 |
| GTATGCACATGGACCGGTTTTCCCGGTAATCCGTATTTGTA (site GTATGCACTTA) | 2.07 |
| CGTATTCCATGGACCGGTTTTCCCGGTAATCCGTATTTGTG (site CGTATTCCTCA) | 0.0112 |
| ACACGATCATGGACCGGTTTTCCCGGTAATCCGTATTTGTC (site ACACGACCTGA) | 0 |
| CTAATATCATGGACCGGTTTTCCCGGTAATCCGTATTTGAG (site CTAGTATCTGT) | 0 |
| GGGATAGCATGGACCGGTTTTCCCGGTAATCCGTATTTGTT (site GGGATAGCTAA) | 1.85 |
